One molecule from patent US12440584B2, “Macrocyclic ligands with pendant chelating moieties and complexes thereof” (LUMIPHORE, INC., priority 2018, dated 2025) can be followed below.

Common to all, as to assay type: physicochemical
Data set [1] in a line: UV-vis titration with europium chloride for extinction coefficients. Here is the method: In order to determine accurate extinction coefficients for 16 and 16·Eu, titration experiments using europium chloride as the titrant were performed. Europium chloride hexahydrate (13.22 mg, 0.03608 mmol) was dissolved into 5 mM citrate buffer (pH=4) using a 100 mL volumetric flask to give a 0.3608 mM europium chloride solution, which was then titrated into a 0.5 mL solution of 16 in TBS buffer (Tris-buffered saline, 50 mM Tris, 150 mM NaCl, pH=7.6) using 5 μL aliquots. The UV-vis spectra were adjusted for the increase in solvent volume due to each injection. The results of the UV-vis titration are plotted in FIG. 3.
The volume of europium chloride corresponds to 16.70 nmol of europium, meaning the starting concentration of ligand 16 was 33.40 μM. […] These absorbance and concentration values yield extinction coefficients of 13,600 M^−1 cm^−1 and 14,300 M^−1 cm^−1 for the ligand 16 and the complex 16·Eu respectively.
In order to determine accurate extinction coefficients for 43 and 43 Eu, titration experiments using europium chloride as the titrant were performed. Europium chloride hexahydrate (47.58 mg, 0.1299 mmol) was dissolved into 50 mM citrate buffer (pH=4) using a 10 mL volumetric flask to give a 12.99 mM europium chloride solution, which was then transferred to a 100 mL volumetric flask and diluted 1:10 with water. The resulting 1.299 mM europium chloride solution (in 5 mM citrate buffer) was then titrated into a 1 mL solution of 43 in TBS buffer using 5 μL aliquots. The UV-vis spectra were adjusted for the increase in solvent volume due to each injection. The results of the UV-vis titration are plotted in FIG. 4.
The volume of europium chloride corresponds to 47.46 nmol of europium, meaning the starting concentration of ligand 43 was 47.46 μM. […] These absorbance and concentration values yield extinction coefficients of 13,000 M^−1 cm^−1 and 12,800 M^−1 cm^−1 for the ligand and complex respectively.

A short description of data set [2]: Luminescence titration of ligand 43 with europium chloride. To be noted: 383 nm (ligand), 357 nm (complex). Here is the method: Titration of ligand 43 was also performed by luminescence (FIG. 5), monitoring the europium signal at 612 nm upon photoexcitation of the solution at 340 nm. The ligand solution used for the UV-vis titration of 43 mentioned above was first diluted 1:10 in TBS buffer. Similarly, the 1.299 mM stock europium solution was separately diluted 1:10 with water. […] The 32.99 μL equivalence point gives extinction coefficients of 14,400 M^−1 cm^−1 at 383 nm and 14,200 M^−1 cm^−1 at 357 nm for 43 and 43 Eu respectively. Averaging the values from both UV-vis and luminescence titration experiments of 43 yields extinction coefficients of 13,700 M^−1 cm^−1 at 383 nm and 13,500 M^−1 cm^−1 at 357 nm for 43 and 43 Eu respectively.

A short description of data set [3]: Photophysical characterization of Eu complexes (UV-vis, luminescence, quantum yield, lifetime). To be noted: TBS buffer, pH 7.6. As for the experimental part:
The europium complexes of ligands 16, 29, 33, 40, and 43 were prepared by separately dissolving each ligand (2 mg) into methanol (200 μL). Excess europium chloride hexahydrate (˜5 equivalents) was dissolved in methanol (200 μL) and the full volume was added to each of the ligand solutions. The solvent was removed, and the residue was dissolved into DMF (50 μL). The europium complexes were then purified by semi-prep HPLC on an Agilent 1260 Infinity instrument using an Eclipse XDB-C18 column (5 μm, 9.4×250 mm). The mobile phase was 10 to 30% acetonitrile in water containing 0.1% trifluoroacetic acid. The volatiles were removed from the HPLC eluents under vacuum, and the residues were separately dissolved into methanol (500 μL) to give methanolic stock solutions of each europium complex with greater than 98% purity. A few drops of these methanolic solutions were evaporated to dryness, and then the residue was dissolved into TBS buffer at a concentration of ca. 3 μM to make aqueous stock solutions (20 mL) with an absorbance of 0.05 (1 cm path length) at 365 nm. […] Quinine sulfate dissolved in 0.05 M sulfuric acid was similarly diluted to a final absorbance of 0.05 at 365 nm, and this solution was similarly (1/6, 2/6, 3/6, 4/6, and 5/6) diluted to afford six quinine sulfate reference samples of evenly spaced concentration. […] By measuring the absorbance and luminescence of these dilute solutions, the quantum yields of the new Eu complexes were determined. A 5 cm path-length quartz cell was used to measure the absorbance of these dilute solutions in order to improve the UV-vis signal-to-noise. Steady state photoluminescence measurements were collected in a 1 cm fluorescence cuvette at 365 nm excitation wavelength, 1 nm resolution, 10 nm excitation slit width, 1 nm emission slit width, and 0.2 sec integration time on an instrument that has been described elsewhere (D'Aleo, A.; Moore, E. G.; Szigethy, G.; Xu, J.; Raymond, K. N. Inorg. Chem. 2009, 48, 9316·). […]

On to `NCCOCCNC(=O)C1CCCN(C(=O)c2cccc(=O)n2O)CCCNC(=O)c2ccc(n(O)c2=O)C(=O)N[C@@H]2COC[C@@H]2NC(=O)c2ccc(c(=O)n2O)C(=O)NCCCN1C(=O)c1cccc(=O)n1O` (some centres unmarked) [Compound 43], for which the lambda max in data set [1] (UV-vis titration, TBS buffer) is reported as 383 nm. The extinction coefficient in data set [1] (UV-vis titration, at lambda max) was 13,000 M^−1 cm^−1. For the same molecule, the “ε at λmax” value in data set [1] (measured by europium titration, TBS buffer) is given as 13,700 M^−1cm^−1. The “extinction coefficient, average of UV-vis and luminescence titrations” value in data set [2] is listed as 13,700 M^−1 cm^−1. In addition, the extinction coefficient in data set [2] (luminescence titration) is listed as 14,400 M^−1 cm^−1. In data set [3], the “ε260/ε at λmax” value came out at 1.96, the “ε280/ε at λmax” value is given as 1.27 and the λmax turned out to be 383 nm.
